Measurements: ChEMBL document CHEMBL4420073, “Small molecule inhibitors of MUC1 and methods of identifying the same” (2015)
Active and inactive are the calls of the source. The rule behind the calls is not given here.

Assays:
Mucin-1 (Homo sapiens) [1] = molecular target: Mucin-1 (Homo sapiens) (UniProt P15941); assay: Inhibition of biotinylated MUC1-CD dimerization (unknown origin) assessed as decrease in oligomer formation at 100 uM by streptavidin-HRP based assay relative to control
ZR-75-1 [2] = assay: Growth inhibition of human ZR-75-1 cells assessed as reduction in cell number incubated up to 2 days by MTS assay; type: functional, cell-based
Mucin-1 (Homo sapiens) [3] = molecular target: Mucin-1 (Homo sapiens) (UniProt P15941); assay: Inhibition of soluble unbound MUC1-CD dimerization (unknown origin) by immunoblot analysis
Mucin-1 (Homo sapiens) [4] = molecular target: Mucin-1 (Homo sapiens) (UniProt P15941); assay: Inhibition of MUC1-CD dimerization (unknown origin) expressed in HEK293 cells assessed as disruption of interaction between Flag-MUC1-CD and GFP-MUC1-CD by coimmunoprecipitation assay; type: cell-based
Mucin-1 (Homo sapiens) [5] = molecular target: Mucin-1 (Homo sapiens) (UniProt P15941); assay: Inhibition of MUC1-CD dimerization in human MCF10A cells assessed as reduction in MUC1-C levels at 50 to 100 uM incubated for 3 days by immunoblot analysis; type: cell-based
MCF-10A [6] = assay: Growth inhibition of immortalized human MCF10A cells assessed as reduction in cell number up to 100 uM incubated for 3 days by MTS assay; type: functional, cell-based
MCF-10A [7] = assay: Induction of apoptosis in immortalized human MCF10A cells assessed as caspase-9 cleavage at 75 uM incubated for 3 days by immunoblot analysis; type: functional, cell-based
MCF-10A [8] = assay: Induction of cell membrane integrity loss in immortalized human MCF10A cells at 75 uM incubated for 3 days by propidium iodide staining based flow cytometry; type: functional
MCF7 [9] = assay: Reduction of MUC1 mRNA levels in human MCF7 cells at 75 uM incubated for 3 days by qRT-PCR analysis; type: functional, cell-based
Mucin-1 (Homo sapiens) [10] = molecular target: Mucin-1 (Homo sapiens) (UniProt P15941); assay: Inhibition of MUC1 nuclear import in human MCF7 cells assessed as decrease in nuclear MUC1-C levels at 75 uM incubated for 3 days by immunoblot analysis; type: cell-based
Mucin-1 (Homo sapiens) [11] = molecular target: Mucin-1 (Homo sapiens) (UniProt P15941); assay: Inhibition of MUC1 in human MCF7 cells assessed as decrease in MUC1 protein level in whole cell lysates at 75 uM incubated for 3 days by immunoblot analysis; type: subcellular; conditions: Lysate
MCF7 [12] = assay: Induction of cell membrane integrity loss in human MCF7 cells assessed as PI uptake level at 75 uM incubated for 3 days by propidium iodide staining based flow cytometry (reference value: 22%); type: functional
MCF-10A [13] = assay: Induction of cell membrane integrity loss in immortalized human MCF10A cells assessed as PI uptake level at 50 uM incubated for 3 days by propidium iodide staining based flow cytometry (reference value: 23%); type: functional
MCF-10A [14] = assay: Induction of cell membrane integrity loss in immortalized human MCF10A cells assessed as PI uptake level at 75 uM incubated for 3 days by propidium iodide staining based flow cytometry (reference value: 23%); type: functional
Mucin-1 (Homo sapiens) [15] = molecular target: Mucin-1 (Homo sapiens) (UniProt P15941); assay: Inhibition of His-tagged MUC1-CD dimerization (unknown origin) assessed as decrease in oligomer formation incubated for 1 hr by SDS-polyacrylamide electrophoresis method based luminescence assay
Mucin-1 (Homo sapiens) [16] = molecular target: Mucin-1 (Homo sapiens) (UniProt P15941); assay: Inhibition of MUC1-CD dimerization (unknown origin) expressed in HEK293 cells assessed as disruption of interaction between Flag-MUC1-CD and GFP-MUC1-CD at […] by coimmunoprecipitation assay; type: cell-based
[17] = Drug uptake in human ZR-75-1 cells assessed as mean fluorescence intensity at 5 uM using FITC-tagged peptide incubated for 2 hrs by flow cytometry (reference value: 24); type: ADME, cell-based; conditions: zr-75-1, 2 h
[18] = Drug uptake in human ZR-75-1 cells assessed as mean fluorescence intensity at 5 uM using FITC-tagged peptide incubated for 6 hrs by flow cytometry (reference value: 24); type: ADME, cell-based; conditions: zr-75-1, 6 h
[19] = Drug uptake in human ZR-75-1 cells assessed as mean fluorescence intensity at 5 uM using FITC-tagged peptide incubated for 24 hrs by flow cytometry (reference value: 24); type: ADME, cell-based; conditions: zr-75-1, 24 h
ZR-75-1 [20] = assay: Effect on cellular MUC1-C levels in human ZR-75-1 cells at 5 uM using FITC-tagged peptide by Western blot analysis; type: functional, cell-based
Mucin-1 (Homo sapiens) [21] = molecular target: Mucin-1 (Homo sapiens) (UniProt P15941); assay: Inhibition of MUC1 nuclear import in human ZR-75-1 cells assessed as decrease in nuclear MUC1-C levels at 5 uM by Western blot analysis; type: cell-based
Mucin-1 (Homo sapiens) [22] = molecular target: Mucin-1 (Homo sapiens) (UniProt P15941); assay: Inhibition of MUC1 nuclear import in human MCF7 cells assessed as decrease in nuclear MUC1-C levels at 5 uM by Western blot analysis; type: cell-based
ZR-75-1 [23] = assay: Induction of cell cycle arrest in human ZR-75-1 cells assessed as accumulation at G1 phase at 5 uM incubated for 3 days by propidium iodide staining based flow cytometry (reference value: 64%); type: functional
ZR-75-1 [24] = assay: Induction of cell cycle arrest in human ZR-75-1 cells assessed as accumulation at S phase at 5 uM incubated for 3 days by propidium iodide staining based flow cytometry (reference value: 29%); type: functional
ZR-75-1 [25] = assay: Induction of cell cycle arrest in human ZR-75-1 cells assessed as accumulation at G2 phase at 5 uM incubated for 3 days by propidium iodide staining based flow cytometry (reference value: 7%); type: functional
ZR-75-1 [26] = assay: Induction of cell cycle arrest in human ZR-75-1 cells assessed as accumulation at G1 phase at 5 uM incubated for 4 days by propidium iodide staining based flow cytometry (reference value: 64%); type: functional
ZR-75-1 [27] = assay: Induction of cell cycle arrest in human ZR-75-1 cells assessed as accumulation at S phase at 5 uM incubated for 4 days by propidium iodide staining based flow cytometry (reference value: 29%); type: functional
ZR-75-1 [28] = assay: Induction of cell cycle arrest in human ZR-75-1 cells assessed as accumulation at G2 phase at 5 uM incubated for 4 days by propidium iodide staining based flow cytometry (reference value: 7%); type: functional
ZR-75-1 [29] = assay: Induction of necrosis in human ZR-75-1 cells at 5 uM incubated for 3 days by propidium iodide staining based flow cytometry (reference value: 8%); type: functional
ZR-75-1 [30] = assay: Induction of necrosis in human ZR-75-1 cells at 5 uM incubated for 4 days by propidium iodide staining based flow cytometry (reference value: 8%); type: functional
MCF7 [31] = assay: Induction of cell cycle arrest in human MCF7 cells assessed as accumulation at G1 phase at 5 uM incubated for 3 days by propidium iodide staining based flow cytometry (reference value: 70%); type: functional
MCF7 [32] = assay: Induction of cell cycle arrest in human MCF7 cells assessed as accumulation at S phase at 5 uM incubated for 3 days by propidium iodide staining based flow cytometry (reference value: 21%); type: functional
MCF7 [33] = assay: Induction of cell cycle arrest in human MCF7 cells assessed as accumulation at G2 phase at 5 uM incubated for 3 days by propidium iodide staining based flow cytometry (reference value: 9%); type: functional
MCF7 [34] = assay: Induction of necrosis in human MCF7 cells at 5 uM incubated for 3 days by propidium iodide staining based flow cytometry (reference value: 5%); type: functional
MCF7 [35] = assay: Induction of necrosis in human MCF7 cells at 5 uM incubated for 4 days by propidium iodide staining based flow cytometry (reference value: 5%); type: functional
ZR-75-1 [36] = assay: Growth inhibition in human ZR-75-1 cells assessed as reduction in cell number up to 96 hrs in presence of MUC1 siRNA; type: functional, cell-based
ZR-75-1 [37] = assay: Growth inhibition in human ZR-75-1 cells assessed as reduction in cell number up to 96 hrs in presence of control siRNA; type: functional, cell-based
HEK293 = assay: Growth inhibition of HEK293 cells assessed as reduction in cell number up to 96 hrs; type: cell-based; conditions: human, hek293, 96 h
MCF-10A [38] = assay: Induction of cell cycle arrest in human MCF10A cells assessed as accumulation at S phase at 5 uM incubated for 3 days by propidium iodide staining based flow cytometry (reference value: 38%); conditions: 72 h
MCF-10A [39] = assay: Induction of cell cycle arrest in human MCF10A cells assessed as accumulation at S phase at 5 uM incubated for 4 days by propidium iodide staining based flow cytometry (reference value: 38%); conditions: 96 h
MCF-10A [40] = assay: Growth inhibition in human MCF10A cells assessed as reduction in cell number up to 96 hrs; type: cell-based
[41] = Toxicity in nu/nu mouse assessed as effect on body weight at 50 mg/kg, ip for 11 days measured over next 28 days after stopping drug administration; type: organism-based; conditions: in vivo, 672 h
ZR-75-1 [42] = assay: Antitumor activity against human ZR-75-1 xenografted in nu/nu mouse assessed as reduction in tumor growth at 50 mg/kg/day, ip for 7 days measured on day 7; type: functional, organism-based
ZR-75-1 [43] = assay: Antitumor activity against human ZR-75-1 xenografted in nu/nu mouse assessed as reduction in tumor growth at 50 mg/kg/day, ip for 7 days followed by treatment cessation and measured over next 17 days; type: functional, organism-based
ZR-75-1 [44] = assay: Antitumor activity against human ZR-75-1 xenografted in nu/nu mouse assessed as induction of necrosis in tumor at 50 mg/kg/day, ip for 21 days; type: functional, organism-based
ZR-75-1 [45] = assay: Suppression of MUC1 protein expression in tumor area of human ZR-75-1 xenografted in nu/nu mouse at 50 mg/kg/day, ip for 21 days; type: functional, organism-based

Mucin-1 (Homo sapiens), sequence (P15941 24-1097 limits assumed): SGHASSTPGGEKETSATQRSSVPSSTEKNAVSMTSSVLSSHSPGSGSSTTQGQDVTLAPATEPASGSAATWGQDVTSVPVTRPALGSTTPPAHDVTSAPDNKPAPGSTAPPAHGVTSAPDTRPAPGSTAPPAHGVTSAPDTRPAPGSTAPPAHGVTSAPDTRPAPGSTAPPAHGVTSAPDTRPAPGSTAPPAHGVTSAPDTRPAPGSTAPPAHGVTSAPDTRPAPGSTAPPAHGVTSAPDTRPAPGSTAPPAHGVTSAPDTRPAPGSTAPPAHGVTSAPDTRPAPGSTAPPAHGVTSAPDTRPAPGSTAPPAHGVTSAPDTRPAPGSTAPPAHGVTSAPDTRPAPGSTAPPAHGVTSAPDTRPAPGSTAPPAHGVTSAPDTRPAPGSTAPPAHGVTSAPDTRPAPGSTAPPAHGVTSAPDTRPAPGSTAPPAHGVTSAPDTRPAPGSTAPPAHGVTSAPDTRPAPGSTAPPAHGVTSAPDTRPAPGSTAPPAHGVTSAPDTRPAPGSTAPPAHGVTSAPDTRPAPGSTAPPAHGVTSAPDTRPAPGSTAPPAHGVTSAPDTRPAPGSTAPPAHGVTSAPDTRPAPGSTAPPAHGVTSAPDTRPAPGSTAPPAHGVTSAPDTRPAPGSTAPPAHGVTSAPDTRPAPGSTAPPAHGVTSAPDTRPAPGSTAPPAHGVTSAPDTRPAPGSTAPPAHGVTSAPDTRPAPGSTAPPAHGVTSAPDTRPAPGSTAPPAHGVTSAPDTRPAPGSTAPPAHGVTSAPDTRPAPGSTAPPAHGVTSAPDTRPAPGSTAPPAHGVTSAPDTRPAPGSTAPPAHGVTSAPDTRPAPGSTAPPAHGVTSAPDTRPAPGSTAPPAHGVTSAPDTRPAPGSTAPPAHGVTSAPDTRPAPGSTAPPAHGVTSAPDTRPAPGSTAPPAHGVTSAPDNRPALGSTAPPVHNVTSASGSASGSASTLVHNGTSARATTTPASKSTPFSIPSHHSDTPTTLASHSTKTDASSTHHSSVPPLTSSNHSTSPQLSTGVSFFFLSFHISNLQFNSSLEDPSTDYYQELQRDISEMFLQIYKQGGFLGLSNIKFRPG
Mucin-1 (Homo sapiens), sequence (P15941 1098-1255 limits assumed): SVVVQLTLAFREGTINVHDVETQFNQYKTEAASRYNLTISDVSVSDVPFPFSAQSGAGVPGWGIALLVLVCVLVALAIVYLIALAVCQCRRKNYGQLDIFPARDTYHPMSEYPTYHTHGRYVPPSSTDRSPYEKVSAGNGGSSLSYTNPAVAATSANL

## O=c1cc(C(F)(F)F)c2ccc(OCc3ccccc3)cc2o1
Mucin-1 (Homo sapiens) [1]
  inhibition: > 50%

## CCCc1cc2c(=O)c(-c3ccc4c(c3)OCCCO4)c(C)oc2cc1OC
Mucin-1 (Homo sapiens) [1]
  inhibition: > 50%

## CCCCc1cc2c(=O)c(-c3cc[nH]n3)c(C)oc2cc1O
Mucin-1 (Homo sapiens) [1]
  inhibition: > 50%

## CCOC(=O)c1oc2cc(OCc3ccc(C(=O)OC)o3)ccc2c(=O)c1-c1ccc(C(=O)OC)o1
Mucin-1 (Homo sapiens) [1]
  inhibition: > 50%

## O=c1c(O)c(-c2ccc(O)cc2)oc2cc(O)cc(O)c12
ZR-75-1 [2]
  growth inhibition (GI): Active

## CC(=O)C(C)Oc1ccc2c(-c3ccccc3)cc(=O)oc2c1 (stereo not drawn)
Mucin-1 (Homo sapiens) [1]
  inhibition: > 50%

## CCCc1c(C)c2ccc(OC(=O)C(C)NC(=O)OCc3ccccc3)cc2oc1=O (stereo not drawn)
Mucin-1 (Homo sapiens) [1]
  inhibition: > 50%

## COc1ccc2c(=O)c(-c3cscn3)c(C(F)(F)F)oc2c1
Mucin-1 (Homo sapiens) [1]
  inhibition: > 50%

## O=c1cc(-c2ccccc2)oc2cc(O)c(O)c(O)c12 [BAICALEIN]
Mucin-1 (Homo sapiens) [1]
  inhibition: inactive
Mucin-1 (Homo sapiens) [3]
  inhibition: inactive
Mucin-1 (Homo sapiens) [4]
  inhibition: inactive
Mucin-1 (Homo sapiens) [5]
  inhibition: inactive
MCF-10A [6]
  growth inhibition (GI): inactive
MCF-10A [7]
  Activity: inactive
MCF-10A [8]
  Activity: inactive
MCF7 [9]
  Activity: inactive
Mucin-1 (Homo sapiens) [10]
  inhibition: inactive
Mucin-1 (Homo sapiens) [11]
  inhibition: inactive
MCF7 [12]
  Activity: 19%
MCF-10A [13]
  Activity: 27%
MCF-10A [14]
  Activity: 28%

## CC[C@H](C)[C@H](NC(=O)[C@H](CC(=O)O)NC(=O)[C@H](CC(C)C)NC(=O)[C@H](CCC(N)=O)NC(=O)CNC(=O)[C@H](Cc1ccc(O)cc1)NC(=O)[C@H](CC(N)=O)NC(=O)[C@H](CCCCN)NC(=O)[C@H](CCCNC(=N)N)NC(=O)[C@H](CCCNC(=N)N)NC(=O)[C@H](CS)NC(=O)[C@H](CCC(N)=O)NC(=O)[C@H](CS)NC(=O)[C@H](CCCNC(=N)N)NC(=O)[C@@H](CCCNC(=N)N)NC(=O)[C@@H](CCCNC(=N)N)NC(=O)[C@@H](CCCNC(=N)N)NC(=O)[C@@H](CCCNC(=N)N)NC(=O)[C@@H](CCCNC(=N)N)NC(=O)[C@@H](CCCNC(=N)N)NC(=O)[C@@H](CCCNC(=N)N)NC(=O)[C@H](N)CCCNC(=N)N)C(=O)N[C@@H](Cc1ccccc1)C(=O)N1CCC[C@H]1C(=O)O
Mucin-1 (Homo sapiens) [15]
  inhibition: Active
Mucin-1 (Homo sapiens) [16]
  inhibition: Active
[17]
  Flu intensity: 145
[18]
  Flu intensity: 252
[19]
  Flu intensity: 615
ZR-75-1 [20]
  Activity: inactive
Mucin-1 (Homo sapiens) [21]
  inhibition: Active
Mucin-1 (Homo sapiens) [22]
  inhibition: Active
ZR-75-1 [23]
  Activity: 29%
ZR-75-1 [24]
  Activity: 69%
ZR-75-1 [25]
  Activity: 2%
ZR-75-1 [26]
  Activity: 49%
ZR-75-1 [27]
  Activity: 37%
ZR-75-1 [28]
  Activity: 14%
ZR-75-1 [29]
  Activity: 34%
ZR-75-1 [30]
  Activity: 74%
MCF7 [31]
  Activity: 54%
MCF7 [32]
  Activity: 46%
MCF7 [33]
  Activity: 0%
MCF7 [34]
  Activity: 24%
MCF7 [35]
  Activity: 44%
ZR-75-1 [36]
  growth inhibition (GI): inactive
ZR-75-1 [37]
  growth inhibition (GI): Active
HEK293
  growth inhibition (GI): Non-Toxic
MCF-10A [38]
  Activity: 42%
MCF-10A [39]
  Activity: 42%
MCF-10A [40]
  growth inhibition (GI): Non-Toxic
[41]
  Activity: Non-Toxic
ZR-75-1 [42]
  Activity: Active
ZR-75-1 [43]
  Activity: Active
ZR-75-1 [44]
  Activity: Active
ZR-75-1 [45]
  Activity: Active
